In the CheMixHub ionic liquid set:

Assay: xn = mol fraction of the nth substance listed

C=Cn1cc[n+](CCCC)c1.NCC(=O)[O-] + O
101.3 kPa
Conditions | electrical conductivity [S/m] | viscosity [mPa·s]
293.15 K, x1 = 0.5 | – | 59.3
293.15 K, x1 = 0.9 | – | 1599
303.15 K, x1 = 0.5 | 2.58 | 43.4
303.15 K, x1 = 1 | 0.009 | 9300
308.15 K, x1 = 0.1 | 1.11 | –
308.15 K, x1 = 0.7 | 1.99 | –
308.15 K, x1 = 0.9 | 0.48 | –
308.15 K, x1 = 1 | 0.012 | –
318.15 K, x1 = 0.5 | 3.58 | –
333.15 K, x1 = 0.3 | – | 10.48
333.15 K, x1 = 1 | – | 1753
343.15 K, x1 = 0.3 | – | 10.08
343.15 K, x1 = 1 | – | 1089
353.15 K, x1 = 0.5 | – | 21.66
353.15 K, x1 = 0.9 | – | 520
353.15 K, x1 = 1 | – | 730

CCC(=O)[O-].OCC[NH2+]c1ccccc1 + O
303.15 K, 100 kPa
Conditions | electrical conductivity [S/m]
x2 = 0.01476 | 0.000353
x2 = 0.03394 | 0.000354
x2 = 0.0417 | 0.000355
x2 = 0.05414 | 0.000356

CCCC(=O)[O-].OCC[NH2+]c1ccccc1 + O
303.15 K, 100 kPa
Conditions | electrical conductivity [S/m]
x2 = 0.0163 | 0.000469
x2 = 0.03811 | 0.00047
x2 = 0.05476 | 0.000471
x2 = 0.07271 | 0.000472

CCCCCCCCCCCCCCCC[N+](C)(C)C.[Br-] + O
Conditions | viscosity [mPa·s]
298.15 K, 100 kPa, x1 = 7.21e-06 | 0.896
298.15 K, 100 kPa, x1 = 2.162e-05 | 0.9
298.15 K, 100 kPa, x1 = 7.207e-05 | 0.8804
298.15 K, 101 kPa, x1 = 1.46e-05 | 0.905
298.15 K, 101 kPa, x1 = 1.64e-05 | 0.9071
298.15 K, 101 kPa, x1 = 1.802e-05 | 0.9069
298.15 K, 101 kPa, x1 = 3.622e-05 | 0.9141
298.15 K, 101 kPa, x1 = 5.496e-05 | 0.9181
298.15 K, 101 kPa, x1 = 6.937e-05 | 0.9203
298.15 K, 101 kPa, x1 = 9.225e-05 | 0.9267
298.15 K, 101 kPa, x1 = 0.0001067 | 0.933
298.15 K, 101 kPa, x1 = 0.0001193 | 0.9362
298.15 K, 101 kPa, x1 = 0.0001429 | 0.9436
298.15 K, 101 kPa, x1 = 0.0001602 | 0.9481
298.15 K, 101 kPa, x1 = 0.0001802 | 0.9511
298.15 K, 101 kPa, x1 = 0.0002057 | 0.9556
298.15 K, 101 kPa, x1 = 0.000211 | 0.9553
298.15 K, 101 kPa, x1 = 0.000245 | 0.9662
298.15 K, 101 kPa, x1 = 0.0002573 | 0.9651
298.15 K, 101 kPa, x1 = 0.0002724 | 0.9675
303.15 K, 100 kPa, x1 = 7.207e-05 | 0.7984
308.15 K, 100 kPa, x1 = 7.21e-06 | 0.742
308.15 K, 100 kPa, x1 = 2.162e-05 | 0.745
308.15 K, 100 kPa, x1 = 7.207e-05 | 0.7583

298.15 K, 101 kPa, frequency 0.001 MHz
Conditions | electrical conductivity [S/m]
x1 = 1.09e-06 | 0.001
x1 = 2.34e-06 | 0.00165
x1 = 3.39e-06 | 0.00255
x1 = 4.43e-06 | 0.00305
x1 = 5.57e-06 | 0.00366
x1 = 6.72e-06 | 0.00441
x1 = 7.97e-06 | 0.00511
x1 = 8.91e-06 | 0.00577
x1 = 1.12e-05 | 0.00697
x1 = 1.213e-05 | 0.00757
x1 = 1.307e-05 | 0.00823
x1 = 1.411e-05 | 0.00873
x1 = 1.526e-05 | 0.00943
x1 = 1.63e-05 | 0.00978
x1 = 1.734e-05 | 0.0102
x1 = 1.922e-05 | 0.0105
x1 = 1.995e-05 | 0.0108
x1 = 2.172e-05 | 0.0111
x1 = 2.276e-05 | 0.0113
x1 = 2.443e-05 | 0.0115
x1 = 2.599e-05 | 0.0117
x1 = 2.734e-05 | 0.012
x1 = 2.859e-05 | 0.0122

CCCCCCCCCCCCCCCC[n+]1ccccc1.[Br-] + O
100 kPa, x1 = 9.009e-05
Conditions | electrical conductivity [S/m]
298.15 K | 0.021
303.15 K | 0.021
308.15 K | 0.022
313.15 K | 0.024

CCCCCCCCCCCCCC[P+](CCCCCC)(CCCCCC)CCCCCC.[Br-] + O
100 kPa, x2 = 0.68
Conditions | viscosity [mPa·s]
303.15 K | 180.5
353.15 K | 22.85

CCCCCCCCCCCC[N+](CC)(CC)CC.O=S(=O)([N-]S(=O)(=O)C(F)(F)F)C(F)(F)F + O
101 kPa, x2 = 0.1247
Conditions | viscosity [mPa·s]
293.25 K | 157.4
298.05 K | 130.7

CCCCCCCCCCCC[N+]1(C)CCCCC1.O=C([O-])c1ccccc1O + O
electrical conductivity [S/m], 100 kPa
Conditions | x1 = 3.55e-06 | x1 = 8.89e-06 | x1 = 2.712e-05
298.15 K | 0.00167 | – | 0.0079
328.15 K | – | 0.0063 | –

CCCCCC[n+]1ccccc1.O=[N+]([O-])[O-] + O
298.15 K, 101 kPa
Conditions | viscosity [mPa·s]
x1 = 0.0002072 | 0.9698
x1 = 0.0003855 | 1.002
x1 = 0.0005691 | 1.012
x1 = 0.0007311 | 1.033
x1 = 0.0009416 | 1.045
x1 = 0.001112 | 1.058
x1 = 0.001262 | 1.069
x1 = 0.00145 | 1.101
x1 = 0.001634 | 1.107
x1 = 0.001826 | 1.122
x1 = 0.003609 | 1.219
x1 = 0.005402 | 1.312
x1 = 0.007153 | 1.39
x1 = 0.008806 | 1.453
x1 = 0.01076 | 1.515
x1 = 0.01248 | 1.581
x1 = 0.01427 | 1.646
x1 = 0.01599 | 1.702
x1 = 0.01772 | 1.758

CCCCCn1cc[n+](CCCCC)c1.O=S(=O)([N-]S(=O)(=O)C(F)(F)F)C(F)(F)F + O
100 kPa, x2 = 0.1575
Conditions | viscosity [mPa·s]
313.15 K | 35.17
338.15 K | 15.44
358.15 K | 9.31

CCCC[N+]1(C)CCCCC1.N#C[N-]C#N + O
100 kPa
Conditions | viscosity [mPa·s]
298.15 K, x2 = 0.2122 | 73
328.15 K, x2 = 0.7349 | 6.6
333.15 K, x2 = 0.6419 | 8

CCCC[N+]1(C)CCCCC1.N#C[S-] + O
101 kPa
Conditions | viscosity [mPa·s]
318.15 K, x2 = 0.3741 | 57.3
328.15 K, x2 = 0.2774 | 59.4
328.15 K, x2 = 0.3741 | 37.2
328.15 K, x2 = 0.6302 | 13.48
338.15 K, x2 = 0.2774 | 39.6
348.15 K, x2 = 0.5111 | 11.92

CCCC[n+]1ccc(C)cc1.F[B-](F)(F)F + O
298.15 K, 101 kPa
Conditions | electrical conductivity [S/m]
x1 = 0.0002198 | 0.131
x1 = 0.0004197 | 0.206
x1 = 0.0007725 | 0.357
x1 = 0.001123 | 0.486
x1 = 0.001267 | 0.554
x1 = 0.001481 | 0.638
x1 = 0.00182 | 0.757
x1 = 0.00217 | 0.871
x1 = 0.002506 | 0.979
x1 = 0.002721 | 1.01
x1 = 0.002887 | 1.07
x1 = 0.003188 | 1.19
x1 = 0.003487 | 1.27
x1 = 0.003843 | 1.36
x1 = 0.004144 | 1.44
x1 = 0.004481 | 1.52

CCCC[n+]1ccccc1.N#C[N-]C#N + O
100 kPa
Conditions | electrical conductivity [S/m] | viscosity [mPa·s]
298.15 K, x1 = 0.9563 | – | 30.06
298.15 K, x1 = 0.9642 | 0.931 | –
303.15 K, x1 = 0.9189 | 1.17 | –
303.15 K, x1 = 0.9338 | 1.14 | –
303.15 K, x1 = 0.9488 | 1.12 | –
303.15 K, x1 = 0.9563 | – | 24.67
313.15 K, x1 = 0.926 | – | 16.69
313.15 K, x1 = 0.9563 | – | 17.57
313.15 K, x1 = 0.9642 | 1.54 | –
318.15 K, x1 = 0.926 | – | 14.38
318.15 K, x1 = 0.9338 | 1.89 | –
318.15 K, x1 = 0.9722 | – | 15.54
323.15 K, x1 = 0.9563 | – | 12.69
323.15 K, x2 = 0.01155 | – | 13.56
328.15 K, x1 = 0.926 | – | 10.62
328.15 K, x1 = 0.9412 | – | 10.83
333.15 K, x1 = 0.9488 | 2.75 | –
333.15 K, x1 = 0.9563 | – | 9.77
333.15 K, x1 = 0.9642 | 2.7 | –
338.15 K, x1 = 0.9412 | – | 8.47

CCOCn1cc[n+](C)c1.O=S(=O)([N-]S(=O)(=O)C(F)(F)F)C(F)(F)F + O
Conditions | viscosity [mPa·s]
333 K, 101 kPa, x1 = 0.8415 | 11.7

CCn1cc[n+](C)c1.N[C@@H](CO)C(=O)[O-] + O
100 kPa
Conditions | electrical conductivity [S/m]
303.15 K, x1 = 0.9276 | 0.0944
308.15 K, x1 = 0.9133 | 0.132
313.15 K, x1 = 0.9133 | 0.169
313.15 K, x1 = 0.9276 | 0.166
318.15 K, x1 = 0.8699 | 0.223
318.15 K, x1 = 0.884 | 0.221
323.15 K, x1 = 0.9133 | 0.269
328.15 K, x1 = 0.884 | 0.346
333.15 K, x1 = 0.8699 | 0.436
333.15 K, x1 = 0.884 | 0.432
338.15 K, x1 = 0.9276 | 0.511

OC[C@H]1O[C@@](CO)(O[C@H]2O[C@H](CO)[C@@H](O)[C@H](O)[C@H]2O)[C@@H](O)[C@@H]1O + O + CCCCCC[n+]1ccn(C)c1.[Br-]
viscosity [mPa·s], 100 kPa
Conditions | x1 = 0.001819, x3 = 0 | x1 = 0.002681, x3 = 0 | x1 = 0.003595, x3 = 0 | x1 = 0.004483, x3 = 0 | x1 = 0.006262, x3 = 0 | x1 = 0.007151, x3 = 0 | x1 = 0.008891, x3 = 0
288.15 K | 1.252 | 1.306 | 1.362 | 1.414 | 1.517 | 1.571 | 1.678
298.15 K | 0.98 | 1.021 | 1.065 | 1.104 | 1.182 | 1.222 | 1.295
308.15 K | 0.789 | 0.822 | 0.855 | 0.886 | 0.949 | 0.978 | 1.035
318.15 K | 0.657 | 0.683 | 0.709 | 0.733 | 0.783 | 0.805 | 0.86
